Two compounds from ChEMBL document CHEMBL1135808, “A new type of mixed anhydride and its applications to the synthesis of 7-substituted 8-chloro-5,5-dioxoimidazo[1,2-b][1,4,2]benzodithiazines with in vitro antitumor activity” (2002) can be followed below.

Structures are written as SMILES.

Assay [1] concerns SW-620. Briefly: Log of molar concentration leading to 50% cell death against colon cancer SW620 cell line was reported. In kind it is functional. Particulars: Homo sapiens, read-out: Log LC50 (the source's name) (converted).
The test system of assay [2] is ACHN. The assay can be described thus: Log of molar concentration leading to 50% cell death against renal cancer ACHN cell line was reported. In kind it is functional. The following applies: Homo sapiens, read-out: Log LC50 (the source's name) (converted).

As for `Cc1ccc2cccc(NC(=O)c3cc4c(cc3Cl)Sc3nccn3S4(=O)=O)c2n1`, in assay [1], the CC50 is 58.9 µM.
As for `O=C(Nc1nccs1)c1cc2c(cc1Cl)Sc1nccn1S2(=O)=O`, the CC50 in assay [2] is 58.9 µM.
